Experiment: LogP by HPLC on reversed phase columns (EEC directive 79/831 Annex V.A8)
Assay type: physicochemical
Settings: for chromatographic logP: reversed phase HPLC columns, preparation examples, method not indicated, read-out: Log P
Method: [table] If more than one Log P value is available within the same method, all the values are given and separated by “+”. Calibration was done with straight-chain alkan2-ones (with 3 to 16 carbon atoms) with known Log P values (measurement of Log P values using retention times with linear interpolation between successive alkanones). Lambda-max-values were determined using UV-spectra from 200 nm to 400 nm and the peak values of the chromatographic signals.

[1] = method [a]: LC-UV, acidic range, 0.1% formic acid in water and acetonitrile as eluent

| LogP (method [a]) | Compound | also measured |
| --- | --- | --- |
| 3.59^[a] | COC(=O)C(CCSC(C)=O)NC(=O)c1sc(Cl)c(Cl)c1C (centres unmarked) [I.117] |  |
| 4.09^[a] | CCOC(=O)C1(NC(=O)c2sc(Br)c(Br)c2C)CCCC1 [I.106] |  |
| 3.50^[a] | Cc1c(C(=O)NC(C)(C#N)C2CC2)sc(Br)c1Br (centres unmarked) [I.152] |  |
| 3.22^[a] | CCNC(=O)SC[C@H](NC(=O)c1sc(Cl)c(Cl)c1C)C(=O)OC [I.120] |  |
| 2.82^[a] | COC(=O)C1(NC(=O)c2sc(Br)c(Br)c2C)CCOCC1 [I.107] |  |
| 2.54^[a] | Cc1c(C(=O)NC2(C(N)=S)CC2)sc(Cl)c1Cl [I.159] |  |
| 3.60^[a] | COC(=O)CNC(=S)c1sc(Cl)c(Cl)c1C [I.113] |  |
| 3.14^[a] | COC(=O)CC(C)NC(=O)c1sc(Br)c(Br)c1C (centres unmarked) [I.109] |  |
| 2.98^[a] | COC(=O)CC1(NC(=O)c2sc(Cl)c(Cl)c2C)CC1 [I.082] |  |
|  | Cc1c(C(=O)NC2(C#N)CCC(c3ccccc3)CC2)sc(Br)c1Br (centres unmarked) [I.170] | LogP [1]: 4.78^[a] |
| 3.94^[a] | COC(=O)C(NC(=O)c1sc(Cl)c(Cl)c1C)(C1CC1)C1CC1 [I.086] |  |
| 4.15^[a] | CCOC(=O)C1(NC(=S)c2sc(Br)c(Br)c2C)CC1 [I.100] |  |
| 2.02^[a] | COC(=O)[C@H](CC(N)=O)NC(=O)c1sc(Cl)c(Cl)c1C [I.055] |  |
| 3.79^[a] | CCOC(=O)C1(CNC(=O)c2sc(Br)c(Br)c2C)CC1 [I.013] |  |
| 4.60^[a] | COC(=O)C(C)(Cc1ccccc1)NC(=O)c1sc(Cl)c(Cl)c1C (centres unmarked) [I.166] |  |
| 3.01^[a] | COC(=O)C(NC(=O)c1sc(Cl)c(Cl)c1C)C(=O)OC [I.084] |  |
|  | Cc1c(C(=O)NC2(C#N)CCC(C3CCCCC3)CC2)sc(Br)c1Br (centres unmarked) [I.151] | LogP [1]: 6.06^[a] |
| 3.51^[a] | CCOC(=O)C(CSC(C)=O)NC(=O)c1sc(Cl)c(Cl)c1C (centres unmarked) [I.126] |  |
| 3.75^[a] | CCOC(=O)CN(C(=O)c1sc(Cl)c(Cl)c1C)C1CC1 [I.168] |  |
| 3.93^[a] | CCOC(=O)CN(OC)C(=O)c1sc(Br)c(Br)c1C [I.097] |  |
| 3.33^[a] | CNC(=S)SC[C@H](NC(=O)c1sc(Cl)c(Cl)c1C)C(=O)OC [I.121] |  |
| 2.80^[a] | Cc1c(C(=O)NC2(C#N)CC2)sc(Br)c1Br [I.027] |  |
| 2.58^[a] | Cc1c(C(=O)NC(C(N)=O)C(C)C)sc(Br)c1Br (centres unmarked) [I.051] |  |
|  | Cc1c(C(=O)NC2C(=O)SC2(C)C)sc(Br)c1Br (centres unmarked) [I.001] | LogP [1]: 3.99^[a] |

| LogP (method [a]) | Compound | also measured |
| --- | --- | --- |
|  | COC(=O)[C@H](Cc1ccccc1)NC(=O)[C@H](CC(=O)O)NC(=O)c1sc(Cl)c(Cl)c1C [I.048] | LogP [1]: 3.09^[a] |
| 3.35^[a] | COC(=O)[C@H](CSC(=O)N(C)C)NC(=O)c1sc(Cl)c(Cl)c1C [I.119] |  |
| 4.48^[a] | Cc1c(C(=O)NC2(C(=O)OC(C)(C)C)CC(F)(F)C2)sc(Cl)c1Cl [I.145] |  |
| 4.37^[a] | CCOC(=O)C1(C2(NC(=O)c3sc(Br)c(Br)c3C)CC2)CC1 [I.017] |  |
| 3.10^[a] | COC(=O)C(NC(=O)c1sc(Br)c(Br)c1C)C(=O)OC [I.091] |  |
| 4.15^[a] | CCOC(=O)C(Cc1c[nH]c2ccccc12)NC(=O)c1sc(Br)c(Br)c1C (centres unmarked) [I.036] |  |
| 4.23^[a] | CCOC(=O)C1(NC(=O)c2sc(Br)c(Br)c2C)CN(C(=O)OC(C)(C)C)C1 [I.090] |  |
| 2.50^[a] | Cc1c(C(=O)NCC2(C(=O)O)CC2)sc(Br)c1Br [I.019] |  |
| 4.66^[a] | Cc1c(C(=S)NC2(C(=O)OC3CCC3)CC2)sc(Br)c1Br [I.127] |  |
| 3.81^[a] | CCOC(=O)C(NC(=O)c1sc(Cl)c(Cl)c1C)C(=O)OCC [I.087] |  |
| 3.87^[a] | CCOC(=O)CN(OC)C(=O)c1sc(Cl)c(Cl)c1C [I.098] |  |
| 4.01^[a] | Cc1c(C(=O)NC(C#N)Cc2ccccc2)sc(Br)c1Br (centres unmarked) [I.030] |  |
| 2.53^[a] | CCOC(=O)[C@H](CO)NC(=O)c1sc(Cl)c(Cl)c1C [I.148] |  |
|  | Cc1c(C(=O)N[C@H]2CCSC2=O)sc(Br)c1Br [I.010] | LogP [1]: 3.04^[a] |
| 3.15^[a] | CCOC(=O)CN(C)C(=O)c1sc(Cl)c(Cl)c1C [I.057] |  |
| 2.12^[a] | COC(=O)[C@@H](CC(N)=O)NC(=O)c1sc(Br)c(Br)c1C [I.052] |  |
| 3.17^[a] | CCOC(=O)C1(NC(=O)c2sc(Br)c(Br)c2C)CCOCC1 [I.139] |  |
| 4.05^[a] | Cc1c(C(=O)NC2(C(=O)OC(C)C)CCC2)sc(Cl)c1Cl [I.141] |  |
| 5.03^[a] | CCSC(=O)C(CC(C)C)NC(=O)c1sc(Br)c(Br)c1C (centres unmarked) [I.007] |  |
| 1.73^[a] | Cc1c(C(=O)NC(CC(N)=O)C(=O)O)sc(Cl)c1Cl (centres unmarked) [I.068] |  |
| 2.39^[a] | COC(=O)[C@H](CCC(=O)O)NC(=O)c1sc(Cl)c(Cl)c1C [I.103] |  |
| 4.53^[a] | Cc1c(C(=O)NC(C(=O)OCc2ccccc2)C2CC2)sc(Cl)c1Cl (centres unmarked) [I.140] |  |
| 3.06^[a] | CCOC(=O)CCNC(=O)c1sc(Cl)c(Cl)c1C [I.038] |  |
| 4.80^[a] | CCOC(=O)C(NC(=O)c1sc(Br)c(Br)c1C)(OCC)C(C)C (centres unmarked) [I.112] |  |

| LogP (method [a]) | Compound | also measured |
| --- | --- | --- |
| 2.46^[a] | COC(=O)[C@H](CCC(=O)O)NC(=O)c1sc(Br)c(Br)c1C [I.104] |  |
| 3.84^[a] | CCOC(=O)C(NC(=O)c1sc(Br)c(Br)c1C)C1CC1 (centres unmarked) [I.089] |  |
| 2.91^[a] | Cc1c(C(=S)NC2(C(=O)O)CC2)sc(Br)c1Br [I.102] |  |
| 5.08^[a] | Cc1c(C(=O)NC2(C(=O)OC3CCCCC3)CCC2)sc(Cl)c1Cl [I.158] |  |
|  | Cc1c(C(=O)NC2CCSC2=O)sc(Br)c1Br (centres unmarked) [I.002] | LogP [1]: 3.04^[a] |
| 4.44^[a] | CCOC(=O)C(C(C)C)N(C)C(=O)c1sc(Cl)c(Cl)c1C (centres unmarked) [I.059] |  |
|  | Cc1c(C(=O)NC2CCCCNC2=O)sc(Cl)c1Cl (centres unmarked) [I.163] | LogP [1]: 2.67^[a] |
| 2.71^[a] | Cc1c(C(=S)NCC(=O)O)sc(Cl)c1Cl [I.172] |  |
|  | Cc1c(C(=O)NC2CCSC2=O)sc(Cl)c1Cl (centres unmarked) [I.037] | LogP [1]: 2.86^[a] |
| 4.69^[a] | CCSC(=O)C(NC(=O)c1sc(Cl)c(Cl)c1C)C(C)C (centres unmarked) [I.042] |  |
| 4.70^[a] | Cc1c(C(=O)NC(C(=O)OC(C)(C)C)C2CC2)sc(Cl)c1Cl (centres unmarked) [I.161] |  |
| 3.60^[a] | CCOC(=O)C1(NC(=O)c2sc(Cl)c(Cl)c2C)CSC1 [I.146] |  |
| 4.74^[a] | CCSC(=O)C(NC(=O)c1sc(Br)c(Br)c1C)C(C)C (centres unmarked) [I.008] |  |
|  | Cc1c(C(=O)NCC(=O)O)sc(Br)c1Br [N-[(4,5-dibromo-3-methyl-2-thienyl)carbonyl]glycine] | chromatographic logP: 2.05 |
| 4.30^[a] | CCOC(=O)C(CC1CC1)NC(=O)c1sc(Br)c(Br)c1C (centres unmarked) [I.092] |  |
| 4.10^[a] | Cc1c(C(=O)NCC(=O)Sc2ccccc2)sc(Br)c1Br [I.011] |  |
| 1.75^[a] | Cc1c(C(=O)NCC(N)=O)sc(Cl)c1Cl [I.062] |  |
| 2.94^[a] | Cc1c(C(=O)NC2(C(=O)NC3CCC3)CC2)sc(Br)c1Br [I.135] |  |
|  | COC(=O)[C@H](Cc1ccccc1)NC(=O)[C@H](CC(=O)O)NC(=O)c1sc(Br)c(Br)c1C [I.105] | LogP [1]: 3.11^[a] |
| 3.64^[a] | Cc1c(C(=O)NC(C#N)C(C)C)sc(Br)c1Br (centres unmarked) [I.028] |  |
| 3.07^[a] | COC(=O)CC1(NC(=O)c2sc(Br)c(Br)c2C)CC1 [I.012] |  |
|  | Cc1c(C(=O)NC2CCOC2=O)sc(Cl)c1Cl (centres unmarked) [I.147] | LogP [1]: 2.40^[a] |
|  | Cc1c(C(=O)NC2CCOC2=O)sc(Br)c1Br (centres unmarked) [I.021] | LogP [1]: 2.41^[a] |
| 4.51^[a] | CCOC(=O)C(C(C)C)N(C)C(=O)c1sc(Br)c(Br)c1C (centres unmarked) [I.058] |  |

| LogP (method [a]) | Compound | also measured |
| --- | --- | --- |
| 3.43^[a] | COC(=O)C1(NC(=O)c2sc(Cl)c(Cl)c2C)CC(F)(F)C1 [I.143] |  |
|  | Cc1c(C(=O)NC2CCNC2=O)sc(Br)c1Br (centres unmarked) [I.064] | LogP [1]: 1.93^[a] |
| 4.19^[a] | Cc1c(C(=O)NC2(C(=O)OCC3CC3)CCC2)sc(Cl)c1Cl [I.155] |  |
| 5.00^[a] | CCSC(=O)C(CC(C)C)NC(=O)c1sc(Cl)c(Cl)c1C (centres unmarked) [I.041] |  |
| 3.85^[a] | Cc1c(C(=O)NC(C#N)c2ccccc2)sc(Br)c1Br (centres unmarked) [I.029] |  |
| 2.95^[a] | CCOC(=O)CN(O)C(=O)c1sc(Cl)c(Cl)c1C [I.116] |  |
| 3.59^[a] | Cc1c(C(=O)NC2(C#N)CCSCC2)sc(Br)c1Br [I.169] |  |
| 1.84^[a] | Cc1c(C(=O)NC(CO)C(=O)O)sc(Cl)c1Cl (centres unmarked) [I.067] |  |
| 2.92^[a] | Cc1c(C(=O)NC(C(=O)NCC#N)C(C)C)sc(Br)c1Br (centres unmarked) [I.075] |  |
| 2.06^[a] | COC(=O)[C@H](CCC(N)=O)NC(=O)c1sc(Cl)c(Cl)c1C [I.046] |  |
| 1.92^[a] | Cc1c(C(=O)NC(CO)C(=O)O)sc(Br)c1Br (centres unmarked) [I.071] |  |
|  | Cc1c(C(=O)NC2(C(=O)O)CC2)sc(Cl)c1Cl [1-{[(4,5-dichloro-3-methyl-2-thienyl)carbonyl]amino}cyclopropanecarboxylic acid] | chromatographic logP: 2.17 |
| 2.12^[a] | COC(=O)[C@H](CC(N)=O)NC(=O)c1sc(Br)c(Br)c1C [I.053] |  |
|  | Cc1c(C(=O)NC2CNC(=O)C2)sc(Br)c1Br (centres unmarked) [I.065] | LogP [1]: 1.89^[a] |
|  | Cc1c(C(=O)NC2CCCNC2=O)sc(Br)c1Br (centres unmarked) [I.022] | LogP [1]: 2.10^[a] |
| 1.95^[a] | Cc1c(C(=O)NCC(=O)NC2(C(=O)O)CC2)sc(Br)c1Br [I.025] |  |
| 3.07^[a] | Cc1c(C(=O)NC(Cc2c[nH]c3ccccc23)C(=O)O)sc(Br)c1Br (centres unmarked) [I.073] |  |
| 2.12^[a] | CNC(=O)C1(NC(=O)c2sc(Cl)c(Cl)c2C)CC1 [I.160] |  |
| 4.17^[a] | COC(=O)[C@H](CC(=O)OC(C)(C)C)NC(=O)c1sc(Cl)c(Cl)c1C [I.125] |  |
| 3.84^[a] | CCOC(=O)CCC(NC(=O)c1sc(Cl)c(Cl)c1C)C(=O)OCC (centres unmarked) [I.124] |  |
| 3.99^[a] | CCOC(=O)C(CC(F)(F)F)NC(=O)c1sc(Br)c(Br)c1C (centres unmarked) [I.018] |  |
| 4.87^[a] | Cc1c(C(=O)NC2(C3(C(=O)OC(C)C)CC3)CC2)sc(Br)c1Br [I.020] |  |
| 1.92^[a] | CNC(=O)CNC(=O)c1sc(Cl)c(Cl)c1C [I.110] |  |

Reference: patent publication US12509437B2, “Substituted thiophene carboxamides and derivatives thereof as microbicides” (Bayer Aktiengesellschaft, priority 2019, dated 2025)
